Source: ChEMBL document CHEMBL5325488, “Discovery of SMD-3040 as a Potent and Selective SMARCA2 PROTAC Degrader with Strong in vivo Antitumor Activity” (J Med Chem, 2023)
Calls of active or inactive are those of the source. The rule behind the calls is not given here.

Tests used:
[1] = biological target: T1, von Hippel-Lindau disease tumor suppressor/SWI/SNF-related matrix-associated actin-dependent regulator of chromatin subfamily A member 4 (Homo sapiens, UniProt P51532+P40337); experiment: PROTAC activity at VHL/C-terminal HiBiT fused SMARCA4 in human HeLa cells assessed as induction of SMARCA4 degradation by measuring maximal efficacy at 0.001 to 10 uM incubated for 24 hrs by Nano-Glo HiBiT analysis relative to control; type: cell-based; conditions: dose 0.001-10 µM
[2] = biological target: T1, von Hippel-Lindau disease tumor suppressor/SWI/SNF-related matrix-associated actin-dependent regulator of chromatin subfamily A member 4; experiment: PROTAC activity at VHL/C-terminal HiBiT fused SMARCA4 in human HeLa cells assessed as induction of SMARCA4 degradation incubated for 24 hrs by Nano-Glo HiBiT analysis; type: cell-based
Target sequence in this assay (P51532 whole entry, the tested form may be a part): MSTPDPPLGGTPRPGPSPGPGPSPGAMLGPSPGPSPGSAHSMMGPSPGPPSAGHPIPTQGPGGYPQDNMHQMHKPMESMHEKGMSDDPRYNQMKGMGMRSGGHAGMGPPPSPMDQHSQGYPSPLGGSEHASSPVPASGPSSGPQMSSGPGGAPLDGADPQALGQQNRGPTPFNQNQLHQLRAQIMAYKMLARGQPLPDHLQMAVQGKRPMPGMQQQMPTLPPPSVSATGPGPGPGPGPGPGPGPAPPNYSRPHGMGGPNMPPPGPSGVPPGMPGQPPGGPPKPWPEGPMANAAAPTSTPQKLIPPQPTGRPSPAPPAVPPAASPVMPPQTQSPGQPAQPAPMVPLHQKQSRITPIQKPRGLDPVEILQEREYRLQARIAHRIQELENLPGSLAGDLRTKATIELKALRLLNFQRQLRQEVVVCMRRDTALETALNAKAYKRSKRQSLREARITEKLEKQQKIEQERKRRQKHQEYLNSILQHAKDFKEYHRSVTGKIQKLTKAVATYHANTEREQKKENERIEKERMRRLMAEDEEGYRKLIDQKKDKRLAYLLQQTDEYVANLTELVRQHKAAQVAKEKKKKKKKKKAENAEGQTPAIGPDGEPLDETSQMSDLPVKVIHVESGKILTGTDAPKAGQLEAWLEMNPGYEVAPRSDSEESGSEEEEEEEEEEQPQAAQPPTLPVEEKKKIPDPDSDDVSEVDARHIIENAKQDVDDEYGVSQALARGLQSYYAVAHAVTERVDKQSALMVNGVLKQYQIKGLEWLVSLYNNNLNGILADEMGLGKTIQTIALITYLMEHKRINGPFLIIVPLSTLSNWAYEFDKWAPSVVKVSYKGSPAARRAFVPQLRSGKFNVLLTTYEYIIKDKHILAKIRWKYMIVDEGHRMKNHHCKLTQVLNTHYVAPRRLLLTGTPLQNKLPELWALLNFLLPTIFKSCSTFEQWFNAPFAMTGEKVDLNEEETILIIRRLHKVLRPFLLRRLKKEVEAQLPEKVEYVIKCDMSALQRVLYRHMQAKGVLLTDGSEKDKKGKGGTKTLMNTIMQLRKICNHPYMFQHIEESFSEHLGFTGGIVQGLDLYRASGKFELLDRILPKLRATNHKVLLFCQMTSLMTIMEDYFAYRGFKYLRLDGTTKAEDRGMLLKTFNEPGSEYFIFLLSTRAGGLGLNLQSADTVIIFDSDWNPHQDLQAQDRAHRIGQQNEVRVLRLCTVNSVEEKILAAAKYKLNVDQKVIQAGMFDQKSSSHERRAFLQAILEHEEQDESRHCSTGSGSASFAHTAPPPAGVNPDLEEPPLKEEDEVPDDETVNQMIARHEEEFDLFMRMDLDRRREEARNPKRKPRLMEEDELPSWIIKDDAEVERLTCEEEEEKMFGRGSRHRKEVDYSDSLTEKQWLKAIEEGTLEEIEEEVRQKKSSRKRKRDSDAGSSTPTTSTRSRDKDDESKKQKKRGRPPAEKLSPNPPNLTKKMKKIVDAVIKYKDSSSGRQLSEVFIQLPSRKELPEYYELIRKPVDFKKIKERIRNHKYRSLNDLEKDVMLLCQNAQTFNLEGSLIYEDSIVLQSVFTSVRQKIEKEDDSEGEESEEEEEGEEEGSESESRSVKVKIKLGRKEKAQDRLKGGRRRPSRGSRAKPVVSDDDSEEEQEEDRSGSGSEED
Target sequence in this assay (P40337 whole entry, the tested form may be a part): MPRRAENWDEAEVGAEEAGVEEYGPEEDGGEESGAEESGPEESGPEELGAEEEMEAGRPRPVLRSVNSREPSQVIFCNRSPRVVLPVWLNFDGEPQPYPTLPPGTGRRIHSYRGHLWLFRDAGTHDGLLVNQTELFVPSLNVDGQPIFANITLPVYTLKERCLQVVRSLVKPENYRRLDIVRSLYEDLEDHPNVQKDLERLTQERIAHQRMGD

SK-MEL-28 = experiment: Antiproliferative activity against human SK-MEL-28 cells expressing wild-type SMARCA2 assessed as cell growth inhibition by measuring maximal efficacy measured after 7 days by WST-8 assay relative to control; type: functional; conditions: time 7 day
[3] = biological target: T1, von Hippel-Lindau disease tumor suppressor/SWI/SNF-related matrix-associated actin-dependent regulator of chromatin subfamily A member 4; experiment: PROTAC activity at VHL/C-terminal HiBiT fused SMARCA4 in human HeLa cells assessed as induction of SMARCA4 degradation incubated for 48 hrs by Nano-Glo HiBiT analysis; type: cell-based
Target sequence in this assay (P51532 whole entry, the tested form may be a part): as the sequence (P51532 whole entry, the tested form may be a part) above
Target sequence in this assay (P40337 whole entry, the tested form may be a part): as the sequence (P40337 whole entry, the tested form may be a part) above

NCI-H1792 = experiment: Antiproliferative activity against human NCI-H1792 cells expressing wild-type SMARCA2 assessed as cell growth inhibition by measuring maximal efficacy measured after 7 days by WST-8 assay relative to control; type: functional; conditions: time 7 day
[4] = biological target: T1, von Hippel-Lindau disease tumor suppressor/SWI/SNF-related matrix-associated actin-dependent regulator of chromatin subfamily A member 4; experiment: PROTAC activity at VHL/C-terminal HiBiT fused SMARCA4 in human HeLa cells assessed as induction of SMARCA4 degradation by measuring maximal efficacy at 0.001 to 10 uM incubated for 6 hrs by Nano-Glo HiBiT analysis relative to control; type: cell-based; conditions: dose 0.001-10 µM
[5] = biological target: T1, von Hippel-Lindau disease tumor suppressor/SWI/SNF-related matrix-associated actin-dependent regulator of chromatin subfamily A member 4; experiment: PROTAC activity at VHL/wild-type SMARCA4 in human SK-MEL-28 cells assessed as induction of SMARCA4 degradation at 0.001 to 1000 nM incubated for 24 hrs by Western blotting analysis relative to control; type: cell-based; conditions: dose 0.001-1000 nM
[6] = Drug concentration in SCID mouse plasma xenografted with human MV4-11 cells at 50 mg/kg, iv measured after 2 hrs by LC-MS/MS method; type: ADME, organism-based
[7] = biological target: T2, von Hippel-Lindau disease tumor suppressor/SWI/SNF-related matrix-associated actin-dependent regulator of chromatin subfamily A member 2 (Homo sapiens, UniProt P51531+P40337); experiment: In vivo PROTAC activity at VHL/SMARCA2 in SCID mouse xenografted with human NCI-H838 cells assessed as reduction of SMARCA2 level in tumor at 50 mg/kg, iv administered as single dose measured after 96 hrs by Western blotting analysis; type: functional, organism-based; set-up: scale not given: the % may be the effect or the level left
SK-MEL-5 [8] = experiment: Antitumor activity against SMARCA4-deficient human SK-MEL-5 cells xenografted in SCID mouse assessed as tumor growth inhibition at 25 mg/kg, iv administered twice a week measured after 32 days relative to control; type: functional; conditions: SK-MEL-5, 768 h, time 32 day, read-out: TGI
SK-MEL-5 [9] = experiment: Antiproliferative activity against SMARCA4-deficient human SK-MEL-5 cells assessed as cell growth inhibition measured after 7 days by WST-8 assay; type: functional; conditions: SK-MEL-5, 168 h, time 7 day
[10] = biological target: T2, von Hippel-Lindau disease tumor suppressor/SWI/SNF-related matrix-associated actin-dependent regulator of chromatin subfamily A member 2; experiment: PROTAC activity at VHL/wild-type SMARCA2 in human SK-MEL-5 cells assessed as induction of SMARCA2 degradation at 0.001 to 1000 nM incubated for 24 hrs by Western blotting analysis relative to control; type: cell-based; conditions: dose 0.001-1000 nM
SK-MEL-5 [11] = experiment: Antiproliferative activity against SMARCA4-deficient human SK-MEL-5 cells assessed as cell growth inhibition by measuring maximal efficacy measured after 7 days by WST-8 assay relative to control; type: functional; conditions: time 7 day
[12] = biological target: T2, von Hippel-Lindau disease tumor suppressor/SWI/SNF-related matrix-associated actin-dependent regulator of chromatin subfamily A member 2; experiment: In vivo PROTAC activity at VHL/SMARCA2 in SCID mouse xenografted with human MV4-11 cells assessed as reduction of SMARCA2 level in tumor at 50 mg/kg, iv administered as single dose measured after 24 hrs by Western blotting analysis; type: ADME, organism-based; set-up: scale not given: the % may be the effect or the level left
Target sequence in this assay (P51531 whole entry): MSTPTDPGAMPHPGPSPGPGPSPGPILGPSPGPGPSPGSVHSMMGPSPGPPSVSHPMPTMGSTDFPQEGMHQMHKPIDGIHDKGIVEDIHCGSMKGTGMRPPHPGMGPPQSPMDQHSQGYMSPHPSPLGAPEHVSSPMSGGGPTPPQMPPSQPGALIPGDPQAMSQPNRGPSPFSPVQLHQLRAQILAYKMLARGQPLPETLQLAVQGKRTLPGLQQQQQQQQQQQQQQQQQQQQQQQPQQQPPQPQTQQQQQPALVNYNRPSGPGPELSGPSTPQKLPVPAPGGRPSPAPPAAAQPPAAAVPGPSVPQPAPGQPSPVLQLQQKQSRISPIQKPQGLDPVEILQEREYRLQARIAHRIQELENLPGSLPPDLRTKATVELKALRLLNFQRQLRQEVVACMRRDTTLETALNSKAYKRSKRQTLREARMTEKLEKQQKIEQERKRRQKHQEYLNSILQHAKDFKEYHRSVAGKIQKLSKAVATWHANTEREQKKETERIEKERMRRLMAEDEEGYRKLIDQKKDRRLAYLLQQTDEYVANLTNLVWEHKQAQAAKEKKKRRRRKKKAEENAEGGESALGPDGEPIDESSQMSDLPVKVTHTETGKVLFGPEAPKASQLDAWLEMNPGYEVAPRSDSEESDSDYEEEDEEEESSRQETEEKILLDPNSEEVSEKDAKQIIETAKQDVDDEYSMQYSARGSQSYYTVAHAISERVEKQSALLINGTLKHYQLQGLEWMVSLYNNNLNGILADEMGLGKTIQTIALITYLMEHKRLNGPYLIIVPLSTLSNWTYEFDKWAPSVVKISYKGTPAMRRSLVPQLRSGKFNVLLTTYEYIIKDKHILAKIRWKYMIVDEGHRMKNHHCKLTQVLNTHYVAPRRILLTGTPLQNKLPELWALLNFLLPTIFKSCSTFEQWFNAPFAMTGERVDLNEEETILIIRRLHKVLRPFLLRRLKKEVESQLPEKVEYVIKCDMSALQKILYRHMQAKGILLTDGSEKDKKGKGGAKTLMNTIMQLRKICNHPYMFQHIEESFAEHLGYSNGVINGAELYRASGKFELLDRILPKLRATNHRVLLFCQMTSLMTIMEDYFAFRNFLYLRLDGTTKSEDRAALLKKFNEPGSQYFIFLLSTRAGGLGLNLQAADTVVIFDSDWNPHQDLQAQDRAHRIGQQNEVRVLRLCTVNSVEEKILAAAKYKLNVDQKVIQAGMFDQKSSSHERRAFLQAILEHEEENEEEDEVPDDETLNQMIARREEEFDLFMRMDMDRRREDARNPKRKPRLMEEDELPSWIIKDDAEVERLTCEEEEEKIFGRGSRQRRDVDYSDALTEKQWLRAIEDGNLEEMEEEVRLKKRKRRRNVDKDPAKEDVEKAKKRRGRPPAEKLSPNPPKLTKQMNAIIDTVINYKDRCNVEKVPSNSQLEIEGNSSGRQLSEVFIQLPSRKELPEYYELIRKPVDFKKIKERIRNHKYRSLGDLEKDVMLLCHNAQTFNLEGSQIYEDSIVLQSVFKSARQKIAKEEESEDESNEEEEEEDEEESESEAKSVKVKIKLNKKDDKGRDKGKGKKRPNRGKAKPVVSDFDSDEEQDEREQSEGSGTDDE
Target sequence in this assay (P40337 whole entry): as the sequence (P40337 whole entry, the tested form may be a part) above

[13] = biological target: T2, von Hippel-Lindau disease tumor suppressor/SWI/SNF-related matrix-associated actin-dependent regulator of chromatin subfamily A member 2; experiment: PROTAC activity at VHL/C-terminal HiBiT fused SMARCA2 in human HeLa cells assessed as induction of SMARCA2 degradation at 0.0001 to 1 uM incubated for 6 hrs by Nano-Glo HiBiT analysis relative to control; type: cell-based; conditions: dose 0.0001-1 µM
[14] = biological target: T1, von Hippel-Lindau disease tumor suppressor/SWI/SNF-related matrix-associated actin-dependent regulator of chromatin subfamily A member 4; experiment: In vivo PROTAC activity at VHL/SMARCA4 in SCID mouse xenografted with human MV4-11 cells assessed as remaining activity in tumor at 50 mg/kg, iv administered as single dose measured after 24 hrs by Western blotting analysis (reference value: 100 +/- 15 % ); type: ADME, organism-based
Target sequence in this assay (P51532 whole entry, the tested form may be a part): as the sequence (P51532 whole entry, the tested form may be a part) above
Target sequence in this assay (P40337 whole entry, the tested form may be a part): as the sequence (P40337 whole entry, the tested form may be a part) above

[15] = Drug concentration in SCID mouse tumor xenografted with human MV4-11 cells at 50 mg/kg, iv measured after 24 hrs by LC-MS/MS method; type: ADME, organism-based, Neoplasm; conditions: read-out: Ct
[16] = biological target: T2, von Hippel-Lindau disease tumor suppressor/SWI/SNF-related matrix-associated actin-dependent regulator of chromatin subfamily A member 2; experiment: PROTAC activity at VHL/wild-type SMARCA2 in human SK-MEL-5 cells assessed as induction of SMARCA2 degradation incubated for 24 hrs by Western blotting analysis; type: cell-based
Target sequence in this assay (P51531 whole entry): as the sequence (P51531 whole entry) above
Target sequence in this assay (P40337 whole entry): as the sequence (P40337 whole entry, the tested form may be a part) above

[17] = biological target: T1, von Hippel-Lindau disease tumor suppressor/SWI/SNF-related matrix-associated actin-dependent regulator of chromatin subfamily A member 4; experiment: In vivo PROTAC activity at VHL/SMARCA4 in SCID mouse xenografted with human MV4-11 cells assessed as remaining activity in tumor at 50 mg/kg, iv administered as single dose measured after 48 hrs by Western blotting analysis (reference value: 100 +/- 15 % ); type: ADME, organism-based
Target sequence in this assay (P51532 whole entry, the tested form may be a part): as the sequence (P51532 whole entry, the tested form may be a part) above
Target sequence in this assay (P40337 whole entry, the tested form may be a part): as the sequence (P40337 whole entry, the tested form may be a part) above

[18] = biological target: T2, von Hippel-Lindau disease tumor suppressor/SWI/SNF-related matrix-associated actin-dependent regulator of chromatin subfamily A member 2; experiment: PROTAC activity at VHL/C-terminal HiBiT fused SMARCA2 in human HeLa cells assessed as induction of SMARCA2 degradation at 0.0001 to 1 uM incubated for 1 hr by Nano-Glo HiBiT analysis relative to control; type: cell-based; conditions: dose 0.0001-1 µM
[19] = biological target: T2, von Hippel-Lindau disease tumor suppressor/SWI/SNF-related matrix-associated actin-dependent regulator of chromatin subfamily A member 2; experiment: In vivo PROTAC activity at VHL/SMARCA2 in SCID mouse xenografted with human MV4-11 cells assessed as remaining activity in tumor at 50 mg/kg, iv administered as single dose measured after 6 hrs by Western blotting analysis (reference value: 100 +/- 15 % ); type: ADME, organism-based
Target sequence in this assay (P51531 whole entry): as the sequence (P51531 whole entry) above
Target sequence in this assay (P40337 whole entry): as the sequence (P40337 whole entry, the tested form may be a part) above

[20] = biological target: T2, von Hippel-Lindau disease tumor suppressor/SWI/SNF-related matrix-associated actin-dependent regulator of chromatin subfamily A member 2; experiment: PROTAC activity at VHL/C-terminal HiBiT fused SMARCA2 in human HeLa cells assessed as induction of SMARCA2 degradation pre-treated with 2-(6-amino-5-(1-methyl-1H-pyrazol-4-yl)pyridazin-3-yl)phenol for 2 hrs followed by compound treatment for 24 hrs by Nano-Glo HiBiT analysis; type: cell-based
[21] = biological target: T2, von Hippel-Lindau disease tumor suppressor/SWI/SNF-related matrix-associated actin-dependent regulator of chromatin subfamily A member 2; experiment: In vivo PROTAC activity at VHL/SMARCA2 in SCID mouse xenografted with human MV4-11 cells assessed as reduction of SMARCA2 level in tumor at 50 mg/kg, iv administered as single dose measured after 96 hrs by Western blotting analysis; type: ADME, organism-based; set-up: scale not given: the % may be the effect or the level left
Target sequence in this assay (P51531 whole entry): as the sequence (P51531 whole entry) above
Target sequence in this assay (P40337 whole entry): as the sequence (P40337 whole entry, the tested form may be a part) above

[22] = biological target: T1, von Hippel-Lindau disease tumor suppressor/SWI/SNF-related matrix-associated actin-dependent regulator of chromatin subfamily A member 4; experiment: In vivo PROTAC activity at VHL/SMARCA4 in SCID mouse xenografted with human MV4-11 cells assessed as remaining activity in tumor at 50 mg/kg, iv administered as single dose measured after 6 hrs by Western blotting analysis (reference value: 100 +/- 15 % ); type: ADME, organism-based
Target sequence in this assay (P51532 whole entry, the tested form may be a part): as the sequence (P51532 whole entry, the tested form may be a part) above
Target sequence in this assay (P40337 whole entry, the tested form may be a part): as the sequence (P40337 whole entry, the tested form may be a part) above

[23] = biological target: T1, von Hippel-Lindau disease tumor suppressor/SWI/SNF-related matrix-associated actin-dependent regulator of chromatin subfamily A member 4; experiment: PROTAC activity at VHL/C-terminal HiBiT fused SMARCA4 in human HeLa cells assessed as induction of SMARCA4 degradation incubated for 1 hr by Nano-Glo HiBiT analysis; type: cell-based
Target sequence in this assay (P51532 whole entry, the tested form may be a part): as the sequence (P51532 whole entry, the tested form may be a part) above
Target sequence in this assay (P40337 whole entry, the tested form may be a part): as the sequence (P40337 whole entry, the tested form may be a part) above

## Cc1ncsc1-c1ccc([C@H](C)NC(=O)[C@@H]2C[C@@H](O)CN2C(=O)[C@@H](NC(=O)[C@H]2CC[C@H](CN3CC4(CCC(n5cc(-c6cc(-c7ccccc7O)nnc6N)cn5)CC4)C3)CC2)C(C)(C)C)cc1
[1]
  Emax: 57%
[2]
  DC50: > 339 nM
SK-MEL-28
  Imax: 15%
[3]
  DC50: 174 nM
NCI-H1792
  Imax: 25%
[4]
  Emax: 49%
[5]
  Emax: 24%
[6]
  concentration at 2 h: 2730 ng/mL
[7]
  Activity: 67%
SK-MEL-5 [8]
  inhibition in vivo at 25 mg/kg: 54%
SK-MEL-5 [9]
  GI50: 15 nM
[10]
  Emax: 94%
SK-MEL-5 [11]
  Imax: 95%
[12]
  Activity: 86%
[13]
  Emax: 80%
[14]
  Activity: 71%
[15]
  concentration at 24 h: 2960 ng/g
[16]
  DC50: 20 nM
[17]
  Activity: 87%
[18]
  Emax: 66%
[19]
  Activity: 30%
[20]
  Activity: inactive
[21]
  Activity: 74%
[22]
  Activity: 83%
[23]
  DC50: > 3300 nM
